Measurements: publication PMC4240915, “Insights into the posttranslational assembly of the Mo-, S- and Cu-containing cluster in the active site of CO dehydrogenase of Oligotropha carboxidovorans” (Journal of Biological Inorganic Chemistry, 2014)
Values belong to the compound of their own block, whether it stands above or below them.

Key:
[1] = target: T1, CO dehydrogenase (FAD site on CoxM) (Afipia carboxidovorans, UniProt P19920); test: spectrophotometric FAD determination at […] nm after trichloroacetic acid precipitation; type: binding; settings: wild-type enzyme from CO-grown cells; co-purified cofactor
T1 construct: native enzyme purified from wild-type O. carboxidovorans OM5; same complex as P1, as isolated with [CuSMoO2] cluster; with Carbon monoxide dehydrogenase large chain; Carbon monoxide dehydrogenase small chain
T1 sequence (P19920 1-288): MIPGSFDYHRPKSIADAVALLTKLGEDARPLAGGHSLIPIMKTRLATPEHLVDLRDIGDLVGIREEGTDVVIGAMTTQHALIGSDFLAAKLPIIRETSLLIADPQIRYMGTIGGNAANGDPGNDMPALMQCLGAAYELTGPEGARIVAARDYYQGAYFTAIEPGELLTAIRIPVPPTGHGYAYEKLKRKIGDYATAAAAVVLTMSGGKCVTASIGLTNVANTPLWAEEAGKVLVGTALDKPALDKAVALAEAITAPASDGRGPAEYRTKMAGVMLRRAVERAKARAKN
T1 sequence (P19919 1-809 partner): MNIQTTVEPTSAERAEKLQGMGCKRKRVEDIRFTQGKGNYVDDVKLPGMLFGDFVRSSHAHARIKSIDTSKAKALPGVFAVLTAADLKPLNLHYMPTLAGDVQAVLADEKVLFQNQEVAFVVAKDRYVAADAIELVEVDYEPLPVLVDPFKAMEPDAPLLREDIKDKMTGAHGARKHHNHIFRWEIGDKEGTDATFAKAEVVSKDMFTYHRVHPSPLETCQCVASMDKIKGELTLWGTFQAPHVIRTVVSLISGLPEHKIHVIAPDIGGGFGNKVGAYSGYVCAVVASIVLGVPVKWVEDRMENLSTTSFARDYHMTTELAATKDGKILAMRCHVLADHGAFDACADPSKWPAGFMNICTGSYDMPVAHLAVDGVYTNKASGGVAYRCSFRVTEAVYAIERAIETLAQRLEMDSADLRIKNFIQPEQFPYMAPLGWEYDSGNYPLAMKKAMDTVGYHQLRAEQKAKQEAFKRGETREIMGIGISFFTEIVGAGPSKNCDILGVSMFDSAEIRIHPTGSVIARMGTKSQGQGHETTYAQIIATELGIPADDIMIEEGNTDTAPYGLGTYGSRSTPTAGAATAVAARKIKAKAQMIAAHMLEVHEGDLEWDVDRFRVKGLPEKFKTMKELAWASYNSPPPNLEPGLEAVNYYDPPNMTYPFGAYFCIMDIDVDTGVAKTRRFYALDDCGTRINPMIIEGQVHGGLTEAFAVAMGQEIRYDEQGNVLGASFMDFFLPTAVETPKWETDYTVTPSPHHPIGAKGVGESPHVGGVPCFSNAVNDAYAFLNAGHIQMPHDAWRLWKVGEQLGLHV
T1 sequence (P19921 1-166 partner): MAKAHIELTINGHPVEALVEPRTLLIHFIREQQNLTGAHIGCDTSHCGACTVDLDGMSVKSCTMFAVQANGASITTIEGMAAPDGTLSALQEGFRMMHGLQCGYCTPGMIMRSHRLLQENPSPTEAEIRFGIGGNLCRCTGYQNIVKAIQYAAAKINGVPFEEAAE

[2] = target: T1, CO dehydrogenase (FAD site on CoxM); test: photometric assay of CO oxidation with INT as electron acceptor; type: biochemical; settings: electron acceptor with CO as electron donor, 30 °C; acceptor site (FAD) not shown in the paper
[3] = target: T2, CO dehydrogenase (molybdenum site on CoxL) (Afipia carboxidovorans, UniProt P19919); test: Mo(V) EPR at […] K; type: binding; settings: 15 mM ligand, 50 mM HEPES pH 7.2, N2, 25 min room temperature; resulfurated copper-free [MoO2S] enzyme; covalent (mixed disulfide at Mo-bound sulfur)
T2 construct: native enzyme purified from O. carboxidovorans OM5; Mo-, Fe-S- and FAD-containing; Cu and sulfane sulfur removed by KCN, then resulfurated to the [MoO2S] form (copper-free); with Carbon monoxide dehydrogenase medium chain; Carbon monoxide dehydrogenase small chain
T2 sequence (P19919 1-809): T1 sequence (P19919 1-809 partner)
T2 sequence (P19921 1-166 partner): T1 sequence (P19921 1-166 partner)
T2 sequence (P19920 1-288 partner): T1 sequence (P19920 1-288)

Wild type (CO) [1]: 1.93 ± 0.08 mol per mol
Structure (SMILES): Cc1cc2nc3c(=O)[nH]c(=O)nc-3n(C[C@H](O)[C@H](O)[C@H](O)COP(=O)(O)OP(=O)(O)OC[C@H]3O[C@@H](n4cnc5c(N)ncnc54)[C@H](O)[C@@H]3O)c2cc1C [FAD]

Structure (SMILES): O=[N+]([O-])c1ccc(-[n+]2nc(-c3ccccc3)nn2-c2ccc(I)cc2)cc1 [INT, 1-phenyl-2-(4-iodo-phenyl)-3-(4-nitrophenyl)-2H-tetrazolium chloride]
photometric assay of CO oxidation with INT as electron acceptor [2]: CO-oxidizing activity was assayed photometrically employing INT

Structure (SMILES): N[C@@H](CS)C(=O)O [L-cysteine]
Mo(V) EPR at 120 K [3]: SH group of the studied sulfur compounds can bind to the equatorial sulfur of [MoO2S]
